Values of other authors as cited in patent US11019825B2, “Product” (priority 2015, dated 2021).

Key:
canola seedlings = conditions: low concentrations

## Harzianic acid
Pythium irregulare
  antibiotic activity in vitro: antibiotic activity
Rhizoctonia solani
  antibiotic activity in vitro: antibiotic activity
Canola seedlings
  plant growth promotion effect: plant growth promotion effect
Sclerotinia sclerotiorum
  antibiotic activity in vitro: antibiotic activity
